Test results published in article PMC12592502, “Unraveling the mechanisms behind the enhanced efficacy of β-lactam-based sideromycins” (Communications Biology, 2025).
≈ marks a conversion by molar mass, not a printed value. Where “and” joins values, the source holds several entries; their conditions need not be identical. Equal values may be shown once. Read-outs that look alike come from different tables or passages of the source.

Tests used:
K. pneumoniae ATCC 13883 = assay: MIC, broth microdilution (CLSI); assay type: cell-based, Klebsiella pneumoniae; details: for MIC with β-lactamase inhibitor (βI): + 4 μg/mL clavulanic acid
Experimental: (§1) All bacterial strains (see description and sources Table S1) were stored at −80 °C, and grown on tryptone soya agar (TSA) at 35 °C. The iron-deprived (ID)-MHBCA (cation-adjusted Muller-Hinton Broth, Becton Dickinson, Mississauga, ON, Canada) medium was prepared as reported by refs. [21],[50]. Briefly, MHBCA was treated with 10% Chelex® 50-100 mesh (Sigma) and stirred for 6 h at room temperature. The resin was removed by filtration. Divalent Ca^2+ (CaCl2), Mg^2+ (MgCl2), and Zn^2+(ZnSO4), were then added in the iron-depleted medium at 22, 12, and 1 μg/ml respectively. Finally, the pH was adjusted to 7.3, and the medium was sterilized with a 0.2-μm filter. Regular MHBCA (i.e., not treated with Chelex®) was used to compare the inhibitory activity of conjugates in iron-sufficient conditions. The resin used for Chelex treatment was always fresh and had never been regenerated, ensuring consistent iron removal.
(§2) Minimal inhibitory concentrations (MICs) were performed using a broth microdilution technique according to the Clinical and Laboratory Standards Institute (CLSI) guidelines. MICs were determined in MHBCA and in ID-MHBCA. To check the impact of β-lactamases, MICs in the presence of a β-lactamase inhibitor were also determined. The inhibitor was homogenized at 2X the final concentration and added to the bacterial inoculum just before distributing cells into the wells containing the drug dilutions. The final concentration of each inhibitor was 4 μg/mL for clavulanic acid (tested against K. pneumoniae) and 200 μg/mL for 3-aminophenylboronic acid (tested against P. aeruginosa and A. baumannii).

A. baumannii ATCC 19606 = assay: MIC, broth microdilution (CLSI); assay type: cell-based, Acinetobacter baumannii; details: for MIC in combination with PAβN: + 25 µg/mL PAβN
Experimental: as §1, §2

E. coli ΔcirA = assay: MIC, Keio mutant; assay type: cell-based, Escherichia coli; details: Escherichia coli
Experimental: as §1, with “conditions.” for “conditions. The resin used for Chelex treatment was always fresh and had never been regenerated, ensuring consistent iron removal.”
as §2

E. coli ΔfhuA = assay: MIC, Keio mutant; assay type: cell-based, Escherichia coli; details: Escherichia coli, ID-MHBCA
Experimental: as §1, with “conditions.” for “conditions. The resin used for Chelex treatment was always fresh and had never been regenerated, ensuring consistent iron removal.”
as §2

E. coli Δfiu = assay: MIC, Keio mutant; assay type: cell-based, Escherichia coli
Experimental: as §1, with “conditions.” for “conditions. The resin used for Chelex treatment was always fresh and had never been regenerated, ensuring consistent iron removal.”
as §2

PBP1a = target: T1, PBP1a (Pseudomonas aeruginosa, UniProt Q07806); assay: Membrane PBP binding assay, competition with Bocillin FL
T1 construct: using bacterial membranes as the source of PBPs; endogenous in cells; host or cells: P. aeruginosa ATCC 27853 membrane preparation
T1 sequence (Q07806 whole entry): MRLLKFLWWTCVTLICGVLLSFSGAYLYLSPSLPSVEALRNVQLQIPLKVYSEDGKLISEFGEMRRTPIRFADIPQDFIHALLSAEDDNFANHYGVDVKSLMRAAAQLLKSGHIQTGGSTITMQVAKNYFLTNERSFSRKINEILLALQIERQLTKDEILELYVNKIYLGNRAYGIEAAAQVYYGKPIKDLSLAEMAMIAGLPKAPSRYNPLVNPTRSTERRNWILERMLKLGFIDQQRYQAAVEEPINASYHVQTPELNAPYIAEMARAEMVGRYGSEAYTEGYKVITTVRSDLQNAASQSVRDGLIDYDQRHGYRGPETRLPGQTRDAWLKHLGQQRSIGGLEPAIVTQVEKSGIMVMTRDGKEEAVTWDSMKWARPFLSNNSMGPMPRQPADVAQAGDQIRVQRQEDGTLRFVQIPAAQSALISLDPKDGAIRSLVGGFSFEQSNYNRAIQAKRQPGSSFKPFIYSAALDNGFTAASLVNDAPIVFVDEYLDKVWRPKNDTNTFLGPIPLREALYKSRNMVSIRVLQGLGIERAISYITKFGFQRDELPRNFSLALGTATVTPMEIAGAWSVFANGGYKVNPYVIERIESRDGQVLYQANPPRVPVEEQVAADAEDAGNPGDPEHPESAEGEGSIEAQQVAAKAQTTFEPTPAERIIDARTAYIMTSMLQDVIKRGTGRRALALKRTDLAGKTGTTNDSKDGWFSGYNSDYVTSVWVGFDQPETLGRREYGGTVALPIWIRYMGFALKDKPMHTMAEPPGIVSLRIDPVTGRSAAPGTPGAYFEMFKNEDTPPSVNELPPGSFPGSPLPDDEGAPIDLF
Experimental: (§3) Membrane extracts containing PBPs were obtained as described above. Briefly, all species were grown in 1 L of TSB until the OD600 reached 0.9. The washed pellet was incubated with lysozyme (400 μg/mL), DNase (10 μg/mL) RNase(10 μg/mL) and anti-protease cocktail (200 mg/20 mL). Lysis was done with a French press (20,000 psi) and membrane protein were pelleted by ultracentrifugation steps (100,000 × g). The pellet was suspended in a minimal volume (300–500 μL) of KP 0.05 M buffer at pH 7. The protein concentration in the membrane preparations was determined with the Micro BCA TM Protein Assay Kit (Thermo Fisher Scientific, Rockford, IL) using bovine serum albumin as a standard.
(§4) The PBP binding assay was done as described previously[36],[56],[57]. For each antibiotic concentration tested, a quantity of 25 to 40 μg of membrane preparation was used as the source of PBPs, depending on the species. For the purified PaPBP3, 150 ng was used in the assay. First, increasing concentrations of the test antibiotic was added to the membrane or purified PaPBP3 preparations and incubated for 10 min at 30 °C. The reporter molecule Bocillin FL was then added at 12.5 μM for the membrane PBPs preparations and at 500 nM for the pure PaPBP3 samples for an additional 20 min at 30 °C. All reactions were stopped with the addition of the Laemmli-loading buffer (Bio-Rad) containing fresh β-mercaptoethanol (Sigma). All reactions were then heated at 100°C for 3 min before migration on SDS-polyacrylamide discontinuous gel system (7.5% stacking and 10% separating). Control samples without Bocillin FL were also included to highlight autofluorescent proteins that are not PBPs.
(§5) To be able to visualize labeled PBPs after electrophoresis, gels were rinsed in water and fixed in a solution of 50% methanol and 7% acetic acid for 30 min. The fluorescent images of gels were obtained with the Typhoon FLA 9500 instrument (GE-Healthcare Bio-Sciences Inc., Baie-d’Urfé, QC, CA) using a 473 nm excitation wavelength. To obtain quantifiable data, the software Quantity One 1D analysis was used (version 4.6.6; Bio-Rad Laboratories, Richmond, CA). The volume (intensity × constant area) of each PBP was measured. […] All IC50 data were obtained from at least two independent PBP binding assays using two different sets of compound concentrations using a linear regression. The PBP profiles were confirmed, and the PBP numbering were determined using published data and individual molecular weights. […] For example, amdinocillin (Sigma) was used for PBP2 identification. […] The IC50 for PBP 2 of P. aeruginosa was measured by including the SDS-PAGE comigrating autofluorescent protein in the background, as done previously.

PBP1a/1b = assay: as above; details: K. pneumoniae ATCC 13883 membranes
Experimental: as §3, §4, §5

[1] = ID-MHBCA (−), 0 µg/mL supplemental iron
[2] = Klebsiella pneumoniae, ATCC13883, ID-MHBCA (−), 0 µg/mL supplemental iron
[3] = Klebsiella pneumoniae, ATCC13883, ID-MHBCA + 1 µg/mL supplemental iron
[4] = Klebsiella pneumoniae, ATCC13883, MHBCA (+)
[5] = Acinetobacter baumannii, ATCC19606, ID-MHBCA (−), 0 µg/mL supplemental iron, read-out: MIC
[6] = Acinetobacter baumannii, ATCC19606, ID-MHBCA + 1 µg/mL supplemental iron, read-out: MIC
[7] = Acinetobacter baumannii, ATCC19606, ID-MHBCA, + 200 μg/mL APB, read-out: MIC with β-lactamase inhibitor (βI)
[8] = Acinetobacter baumannii, ATCC19606, MHBCA (+), no inhibitor, read-out: MIC
[9] = Acinetobacter baumannii, ATCC19606, MHBCA, + 200 μg/mL APB, read-out: MIC with β-lactamase inhibitor (βI)

Structure (SMILES)	MIC (K. pneumoniae ATCC 13883; [1]) [µM]	MIC with β-lactamase inhibitor (βI) (K. pneumoniae ATCC 13883; ID-MHBCA) [µM]	MIC (K. pneumoniae ATCC 13883; [2]) [µM]	MIC (K. pneumoniae ATCC 13883; [3]) [µM]	MIC (K. pneumoniae ATCC 13883; [4]) [µM]	MIC (K. pneumoniae ATCC 13883; MHBCA (+)) [µM]	MIC with β-lactamase inhibitor (βI) (K. pneumoniae ATCC 13883; MHBCA)	MIC (A. baumannii ATCC 19606; [5]) [µM]	MIC (A. baumannii ATCC 19606; [6]) [µM]	MIC (A. baumannii ATCC 19606; [7]) [µM]	MIC (A. baumannii ATCC 19606; [8]) [µM]	MIC (A. baumannii ATCC 19606; [9]) [µM]	MIC in combination with PAβN (A. baumannii ATCC 19606; MHBCA) [µM]	MIC (E. coli ΔcirA; ID-MHBCA) [µM]	MIC (E. coli ΔfhuA) [µM]	MIC (E. coli Δfiu; Escherichia coli, ID-MHBCA) [µM]	IC50 (PBP1a/1b) [µM]	other results
CC1(C)SC2C(NC(=O)C(NC(=O)CN(CCCCNC(=O)c3cccc(O)c3O)C(=O)c3cccc(O)c3O)c3ccccc3)C(=O)N2C1C(=O)O (stereo not drawn) [BAMP, bis-catechol (azotochelin)-ampicillin]	>200	0.4	> 200	> 200	> 200	>200	1.6 µM	0.2 (≈ 0.15 µg/mL)	1.6	0.1	0.4 (≈ 0.3 µg/mL)	0.2	> 6.3	0.2 to 13 (≈ 0.15 to 9.75 µg/mL)	0.1 (≈ 0.075 µg/mL)	0.024 (≈ 0.018 µg/mL)	4.24 ± 0.07	MIC ratio unconjugated β-lactam/conjugate (K. pneumoniae ATCC 13883; ID-MHBCA): No activity; MIC ratio unconjugated β-lactam/conjugate (K. pneumoniae ATCC 13883; MHBCA): No activity; MIC (A. baumannii ATCC 19606; Acinetobacter baumannii, ATCC19606, ID-MHBCA + 0.1 µg/mL supplemental iron, read-out: MIC): 0.4 µM; MIC ratio unconjugated β-lactam/conjugate (A. baumannii ATCC 19606; ID-MHBCA): >1024; MIC ratio 0/1 (A. baumannii ATCC 19606; ID-MHBCA, 0 and 1 µg/mL supplemental iron (Table S2)): 8; MIC ratio 1/0 (A. baumannii ATCC 19606; ID-MHBCA, 1 versus 0 µg/mL supplemental iron (peer review file table)): 8; MIC ratio unconjugated β-lactam/conjugate (A. baumannii ATCC 19606; MHBCA): >512; MIC (E. coli ΔcirA; MHBCA): 13 µM (≈ 9.75 µg/mL); MIC (E. coli Δfiu; Escherichia coli, MHBCA): 0.1 to 0.4 µM (≈ 0.075 to 0.3 µg/mL); MIC (E. coli Δfiu; MHBCA): 0.2 µM (≈ 0.15 µg/mL); IC50 (PBP1a; P. aeruginosa ATCC 27853 membranes, read-out: IC50 PBP1a): 1.4 ± 0.7 µM
CC1(C)S[C@@H]2[C@H](NC(=O)[C@H](N)c3ccccc3)C(=O)N2[C@H]1C(=O)O [AMP, ampicillin, reference compound]	>200	6.3	> 200	> 200	> 200	>200	6.3 μM and 6.3^d μM	> 200	> 200	> 200	> 200	> 200	> 200	25 (≈ 8.74 µg/mL)	25 (≈ 8.74 µg/mL)	25 (≈ 8.74 µg/mL)	8 ± 1	MIC (A. baumannii ATCC 19606; ID-MHBCA (−), 0 µg/mL supplemental iron, read-out: MIC): >200 µM; MIC (A. baumannii ATCC 19606; MHBCA (+), no inhibitor, read-out: MIC): >200 µM; IC50 (PBP1a): 1.9 ± 1.5 µM
